Assay results taken from PubChem BioAssay (NCI).
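A five-concentration, 48-hour dose response in 96-well plates underlies each endpoint, interpolated linearly between surrounding concentrations. Definition used: TGI = concentration required for complete inhibition of growth.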

Each compound was assayed on A498 renal (assay: inhibition of tumour cell growth, NCI panel, 48 h).

SMILES	TGI [µM]
CC12CCC3C(CCC4CC(OC(=O)Cc5ccc(N(CCCl)CCCl)cc5)CCC43C)C1CCC(=O)N2 (stereo unspecified)	31.4
O=C(O)c1cc(-c2ccc3c(O)c(O)ccc3c2)ccc1O	> 75
CCN(CC)CCCNC(=O)c1ccc([N+](=O)[O-])cc1O	> 100
CC1CN=C(N(C(=O)Nc2ccc(F)c(Cl)c2)c2ccccc2)S1 (stereo unspecified)	62.1
O=c1[nH]cnc(NC2C=C(CO)C(O)C2O)c1[N+](=O)[O-] (stereo unspecified)	> 100
CCOC(=O)C1(C(=O)OCC)COS(=O)OC1	> 100
O=C(NC(COC(=O)C(Cc1ccccc1)NC(=O)c1ccccc1)Cc1ccccc1)c1ccccc1 (stereo unspecified)	> 50
CCOC(=O)c1nc2ccc(C(F)(F)F)cc2nc1Oc1ccc(C#N)cc1	57.1
CC(=O)OCC1OC(n2cc(I)c(=O)[nH]c2=O)C(OC(C)=O)C(OC(C)=O)C1OC(C)=O (stereo unspecified)	> 100
CC(O)CCCOC(c1ccccc1)(c1ccccc1)c1ccccc1 (stereo unspecified)	34.7
COC(=O)c1cc2c(cc1CC1Cc3cc4c(cc3C1)CCC4)CCC2	> 100
O=C1NCCS(=O)(=O)N[C@@H](CC2=CC=CCC2)C(=O)N2CCCC12 (stereo partly specified)	> 100
O=[N+]([O-])c1ccc(/C=C/c2cc(-c3ccccc3)nc3ccc4ccccc4c23)cc1	> 100
CCN1CCCC(NCc2c3ccccc3c(CNC3CCCN(CC)C3)c3ccccc23)C1 (stereo unspecified)	28.2
Nc1nc(N)c(N=O)c(Nc2ccc(Br)cc2)n1	35.2
CC(=O)O/N=C/c1c2ccccc2cc2ccccc12	> 100
O=C(NCCCN(CCCCN(CCCNC(=O)C(F)(F)F)Cc1ccc2ccccc2c1)Cc1ccc2ccccc2c1)C(F)(F)F	> 100
CCC1=CC2CN3Cn4c(c(COCc5c6n(c7ccccc57)CN5CC7C=C(CC)C5C6(C(=O)OC)C7)c5ccccc54)C(C(=O)OC)(C2)C13	> 100
CCOC(CNCCC(=O)OC)OCC	> 10
COc1ccc(CC2c3c(cc(OC)c(OC)c3OC)CCN2C)cc1OC (stereo unspecified)	> 100
C[C@@H](Cl)[C@H]1CCCN(Cc2ccc(Br)cc2)C1	> 12.5
COc1cc2nc(-c3cccs3)oc(=O)c2cc1OC	> 100

What follows are compounds tested on A549 NSCLC (assay: inhibition of tumour cell growth, NCI panel, 48 h).

SMILES	TGI [µM]
CC12CCC3C(CCC4CC(OC(=O)Cc5ccc(N(CCCl)CCCl)cc5)CCC43C)C1CCC(=O)N2 (stereo unspecified)	29
O=C(O)c1cc(-c2ccc3c(O)c(O)ccc3c2)ccc1O	> 75
CCN(CC)CCCNC(=O)c1ccc([N+](=O)[O-])cc1O	> 100
Cc1cn([C@@H]2C[C@H](CO)[C@@H](O)C2)c(=O)[nH]c1=O	> 100
CC1CN=C(N(C(=O)Nc2ccc(F)c(Cl)c2)c2ccccc2)S1 (stereo unspecified)	92.1
C=Cc1ccc(C)[n+](C[Si](C)(C)O[Si](C)(C)C[n+]2cc(C=C)ccc2C)c1	> 100
O=c1[nH]cnc(NC2C=C(CO)C(O)C2O)c1[N+](=O)[O-] (stereo unspecified)	> 100
CCOC(=O)C1(C(=O)OCC)COS(=O)OC1	> 100
O=C(NC(COC(=O)C(Cc1ccccc1)NC(=O)c1ccccc1)Cc1ccccc1)c1ccccc1 (stereo unspecified)	> 50
CC(=O)OCC1OC(n2cc(I)c(=O)[nH]c2=O)C(OC(C)=O)C(OC(C)=O)C1OC(C)=O (stereo unspecified)	> 100
CC(O)CCCOC(c1ccccc1)(c1ccccc1)c1ccccc1 (stereo unspecified)	27.3
COC(=O)c1cc2c(cc1CC1Cc3cc4c(cc3C1)CCC4)CCC2	> 100
CC(C(=O)N1C(=O)N(C(=O)C(C)C(O)c2ccccc2)C2CCCCC21)C(O)c1ccccc1 (stereo unspecified)	> 100
O=C1NCCS(=O)(=O)N[C@@H](CC2=CC=CCC2)C(=O)N2CCCC12 (stereo partly specified)	> 100
O=[N+]([O-])c1ccc(/C=C/c2cc(-c3ccccc3)nc3ccc4ccccc4c23)cc1	> 100
COc1ccc(-c2oc(/C=N/NC(N)=S)c([N+](=O)[O-])c2-c2ccc(OC)c(OC)c2)cc1OC	> 100
CCC1=NC(C(F)(F)F)(C(F)(F)F)N=C(N2CCOCC2)O1	> 100
CCN1CCCC(NCc2c3ccccc3c(CNC3CCCN(CC)C3)c3ccccc23)C1 (stereo unspecified)	> 100
COc1c(O)c2c3c(c(C)cc(O)c3c1O)C(=O)C(O)(C(C)(C)C(C)=O)C2=O (stereo unspecified)	> 100
Nc1nc(N)c(N=O)c(Nc2ccc(Br)cc2)n1	> 100
CC(=O)O/N=C/c1c2ccccc2cc2ccccc12	> 100
O=C(NCCCN(CCCCN(CCCNC(=O)C(F)(F)F)Cc1ccc2ccccc2c1)Cc1ccc2ccccc2c1)C(F)(F)F	> 100
CCC1=CC2CN3Cn4c(c(COCc5c6n(c7ccccc57)CN5CC7C=C(CC)C5C6(C(=O)OC)C7)c5ccccc54)C(C(=O)OC)(C2)C13	> 100
CCOC(CNCCC(=O)OC)OCC	> 10
COc1ccc(CC2c3c(cc(OC)c(OC)c3OC)CCN2C)cc1OC (stereo unspecified)	> 100
C[C@@H](Cl)[C@H]1CCCN(Cc2ccc(Br)cc2)C1	> 12.5
Cc1c(N2C(=O)C(Cl)C2c2ccc(Cl)cc2)c(=O)n(-c2ccccc2)n1C (stereo unspecified)	> 100
COc1cc2nc(-c3cccs3)oc(=O)c2cc1OC	> 100

These compounds were tested on BT-549 breast (assay: inhibition of tumour cell growth, NCI panel, 48 h).

SMILES	TGI [µM]
CCOC(=O)c1nc2ccc(C(F)(F)F)cc2nc1Oc1ccc(C#N)cc1	36.8
O=C(NCCCN(CCCCN(CCCNC(=O)C(F)(F)F)Cc1ccc2ccccc2c1)Cc1ccc2ccccc2c1)C(F)(F)F	> 100
Cc1c(N2C(=O)C(Cl)C2c2ccc(Cl)cc2)c(=O)n(-c2ccccc2)n1C (stereo unspecified)	> 100
COc1cc2nc(-c3cccs3)oc(=O)c2cc1OC	> 100

The compounds below were run on DU-145 prostate (assay: inhibition of tumour cell growth, NCI panel, 48 h).

SMILES	TGI [µM]
Cc1ccc(CC[P+](=O)CCc2ccc(C)nc2)cn1	> 100
O=C(O)c1cc(-c2ccc3c(O)c(O)ccc3c2)ccc1O	> 75
CC1CN=C(N(C(=O)Nc2ccc(F)c(Cl)c2)c2ccccc2)S1 (stereo unspecified)	> 100
CCOC(=O)C1(C(=O)OCC)COS(=O)OC1	> 100
CCOC(=O)c1nc2ccc(C(F)(F)F)cc2nc1Oc1ccc(C#N)cc1	38.1
CC(O)CCCOC(c1ccccc1)(c1ccccc1)c1ccccc1 (stereo unspecified)	30.4
COC(=O)c1cc2c(cc1CC1Cc3cc4c(cc3C1)CCC4)CCC2	> 100
O=[N+]([O-])c1ccc(/C=C/c2cc(-c3ccccc3)nc3ccc4ccccc4c23)cc1	> 100
CCC1=NC(C(F)(F)F)(C(F)(F)F)N=C(N2CCOCC2)O1	> 100
CC(=O)O/N=C/c1c2ccccc2cc2ccccc12	> 100
O=C(NCCCN(CCCCN(CCCNC(=O)C(F)(F)F)Cc1ccc2ccccc2c1)Cc1ccc2ccccc2c1)C(F)(F)F	> 100
CCOC(CNCCC(=O)OC)OCC	> 10
C[C@@H](Cl)[C@H]1CCCN(Cc2ccc(Br)cc2)C1	> 12.5
Cc1c(N2C(=O)C(Cl)C2c2ccc(Cl)cc2)c(=O)n(-c2ccccc2)n1C (stereo unspecified)	> 100
COc1cc2nc(-c3cccs3)oc(=O)c2cc1OC	> 100

What follows are compounds tested on HCC-2998 colon (assay: inhibition of tumour cell growth, NCI panel, 48 h).

SMILES	TGI [µM]
Cn1ccnc1C(O)(c1nccn1C)c1nccn1C	> 100
Cc1ccc(CC[P+](=O)CCc2ccc(C)nc2)cn1	> 100
CC12CCC3C(CCC4CC(OC(=O)Cc5ccc(N(CCCl)CCCl)cc5)CCC43C)C1CCC(=O)N2 (stereo unspecified)	41.6
O=C(O)c1cc(-c2ccc3c(O)c(O)ccc3c2)ccc1O	> 75
CCN(CC)CCCNC(=O)c1ccc([N+](=O)[O-])cc1O	> 100
Cc1cn([C@@H]2C[C@H](CO)[C@@H](O)C2)c(=O)[nH]c1=O	> 100
C=Cc1ccc(C)[n+](C[Si](C)(C)O[Si](C)(C)C[n+]2cc(C=C)ccc2C)c1	> 100
O=c1[nH]cnc(NC2C=C(CO)C(O)C2O)c1[N+](=O)[O-] (stereo unspecified)	> 100
CCOC(=O)C1(C(=O)OCC)COS(=O)OC1	> 100
O=C(NC(COC(=O)C(Cc1ccccc1)NC(=O)c1ccccc1)Cc1ccccc1)c1ccccc1 (stereo unspecified)	> 50
CCOC(=O)c1nc2ccc(C(F)(F)F)cc2nc1Oc1ccc(C#N)cc1	> 100
CC(=O)OCC1OC(n2cc(I)c(=O)[nH]c2=O)C(OC(C)=O)C(OC(C)=O)C1OC(C)=O (stereo unspecified)	> 100
CC(O)CCCOC(c1ccccc1)(c1ccccc1)c1ccccc1 (stereo unspecified)	29.1
COC(=O)c1cc2c(cc1CC1Cc3cc4c(cc3C1)CCC4)CCC2	70
O=C1NCCS(=O)(=O)N[C@@H](CC2=CC=CCC2)C(=O)N2CCCC12 (stereo partly specified)	> 100
O=[N+]([O-])c1ccc(/C=C/c2cc(-c3ccccc3)nc3ccc4ccccc4c23)cc1	> 100
CCC1=NC(C(F)(F)F)(C(F)(F)F)N=C(N2CCOCC2)O1	> 100
CCN1CCCC(NCc2c3ccccc3c(CNC3CCCN(CC)C3)c3ccccc23)C1 (stereo unspecified)	27.9
Nc1nc(N)c(N=O)c(Nc2ccc(Br)cc2)n1	> 100
O=C(NCCCN(CCCCN(CCCNC(=O)C(F)(F)F)Cc1ccc2ccccc2c1)Cc1ccc2ccccc2c1)C(F)(F)F	2.93
CCOC(CNCCC(=O)OC)OCC	> 10
COc1ccc(CC2c3c(cc(OC)c(OC)c3OC)CCN2C)cc1OC (stereo unspecified)	> 100
C[C@@H](Cl)[C@H]1CCCN(Cc2ccc(Br)cc2)C1	> 12.5

What follows are compounds tested on HL-60(TB) leukemia (assay: inhibition of tumour cell growth, NCI panel, 48 h).

SMILES	TGI [µM]
Cn1ccnc1C(O)(c1nccn1C)c1nccn1C	> 100
Cc1ccc(CC[P+](=O)CCc2ccc(C)nc2)cn1	> 100
CC12CCC3C(CCC4CC(OC(=O)Cc5ccc(N(CCCl)CCCl)cc5)CCC43C)C1CCC(=O)N2 (stereo unspecified)	22
O=C(O)c1cc(-c2ccc3c(O)c(O)ccc3c2)ccc1O	53.5
CCN(CC)CCCNC(=O)c1ccc([N+](=O)[O-])cc1O	> 100
Cc1cn([C@@H]2C[C@H](CO)[C@@H](O)C2)c(=O)[nH]c1=O	> 100
C=Cc1ccc(C)[n+](C[Si](C)(C)O[Si](C)(C)C[n+]2cc(C=C)ccc2C)c1	> 100
O=c1[nH]cnc(NC2C=C(CO)C(O)C2O)c1[N+](=O)[O-] (stereo unspecified)	> 51.7
O=C(NC(COC(=O)C(Cc1ccccc1)NC(=O)c1ccccc1)Cc1ccccc1)c1ccccc1 (stereo unspecified)	> 50
CCOC(=O)c1nc2ccc(C(F)(F)F)cc2nc1Oc1ccc(C#N)cc1	> 100
CC(=O)OCC1OC(n2cc(I)c(=O)[nH]c2=O)C(OC(C)=O)C(OC(C)=O)C1OC(C)=O (stereo unspecified)	> 100
CC(O)CCCOC(c1ccccc1)(c1ccccc1)c1ccccc1 (stereo unspecified)	> 55.1
COC(=O)c1cc2c(cc1CC1Cc3cc4c(cc3C1)CCC4)CCC2	32.7
CC(C(=O)N1C(=O)N(C(=O)C(C)C(O)c2ccccc2)C2CCCCC21)C(O)c1ccccc1 (stereo unspecified)	70
O=C1NCCS(=O)(=O)N[C@@H](CC2=CC=CCC2)C(=O)N2CCCC12 (stereo partly specified)	> 100
O=[N+]([O-])c1ccc(/C=C/c2cc(-c3ccccc3)nc3ccc4ccccc4c23)cc1	> 100
COc1ccc(-c2oc(/C=N/NC(N)=S)c([N+](=O)[O-])c2-c2ccc(OC)c(OC)c2)cc1OC	55
CCC1=NC(C(F)(F)F)(C(F)(F)F)N=C(N2CCOCC2)O1	> 100
CCN1CCCC(NCc2c3ccccc3c(CNC3CCCN(CC)C3)c3ccccc23)C1 (stereo unspecified)	22.7
